Experimental data reported in US10392423B2, “Peptide-based inhibitors of MLL/SET1 family core complexes” (The Research Foundation for the State University of New York, priority 2017, dated 2019).
“And” between values parts separate entries of the source, which are not always exact repeats. Identical values can stand only once. Like-named read-outs stand apart in the source and are kept apart here.

Key:
[1] = molecular target: T1, MLL3 core complex (Homo sapiens, UniProt P61964); experiment: Core complex methyltransferase inhibition, scintillation proximity assay; assay type: biochemical; details: H3K4me0 substrate
T1 construct: Full-length WRAD constructs in pHis parallel expression vectors; His; made in house; host or cells: Escherichia coli Rosetta II (DE3) pLysS
Description: (§1) MLL Core Complex inhibition by Win6mer. Assay conditions: MLL core complexes were reconstituted by mixing purified GST-SET domains (MLL1, MLL4, MLL2, MLL3, SETd1A, and SETd1B) with WDR5, RbBP5, ASH2L, and DPY-30 in stoichiometric amounts (GST-SET:W:R:A:D 1:1:1:1:2). The activity of each core complex was assessed under the following conditions: 2 μM SET1 core complex, 80 μM biotinylated H3 substrate peptide, 0.68 μM ^3H-AdoMet (0.5 μCi) at 15° C. in Assay Buffer (50 mM Tris pH 8.5, 200 mM NaCl, 5 mM MgCl2, 5% glycerol), in a total volume of 10 μL. Core complex- or H3 peptide-only reactions incubated with ^3H-AdoMet served as background controls. Reactions were quenched with 167 mM EDTA (ethylenediaminetetraacetic acid). Each sample was diluted in 50 μL Buffer 2 containing 0.2 mg/mL BSA and then transferred to 96-well streptavidin-coated FlashPlate® Microplates (Perkin Elmer). Samples were incubated overnight at 4° C. to allow binding of the biotinylated H3 peptide to the streptavidin-coated surface prior to scintillation counting in Hidex Sense microplate reader (LabLogic). Determination of linear ranges: The activity of MLL core complexes towards H3K4me0, H3K4me1, or H3K4me2 substrate peptides was assayed as described above. Reactions were quenched at varying time points with 167 mM EDTA and prepared for scintillation counting on Streptavidin FlashPlates®. A plot of counts per minute (CPM) vs. time was constructed from which the linear range was determined. Single time points within the linear range were selected for each SET1 core complex for performing inhibition studies: H3K4me0: MLL1, MLL2*, SETd1A, and SETd1B*—5 min, MLL4—3 min, MLL3—15 min. H3K4me1: MLL1—5 min, MLL4—3 min, SETd1A—15 min, SETd1B—45 min. H3K4me2: SETd1A—2 hr, SETd1B—1 hr. (*1 μM of MLL2 and SETd1B core complex were used for H3K4me0 reactions). Dose response curves: Inhibition studies were performed in order to determine the efficiency of Win6mer as an MLL core complex inhibitor. The activity of each MLL core complex towards H3 substrate peptides was assessed (as described above) with increasing doses of Win6mer (0, 0.005, 0.05, 0.10, 0.5, 1.0, 2.5, 5.0, 10.0, and 50 μM). Reactions were quenched with 167 mM EDTA at the determined time points and prepared for scintillation counting on streptavidin-coated FlashPlastes® as described above.
(§2) The activity of SET1 core complexes at each Win6mer concentration point was normalized to the activity of the uninhibited core complex to obtain the relative methyltransferase activity. Inhibition data were plotted as relative methyltransferase activity vs. log [Win6mer] (nM). The Win6mer IC50 values for MLL1 and SETd1A core complexes were determined by fitting the data to a dose response with variable slope equation in Sigma Plot.

[2] = molecular target: T2, MLL4 core complex (Homo sapiens, UniProt P61964); experiment: as above; assay type: biochemical; details: for IC50: 2 μM core complex, Win6mer up to 50 μM, read-out: Inhibition Efficiency, IC50
T2 construct: Full-length WRAD constructs in pHis parallel expression vectors; His; made in house; host or cells: Escherichia coli Rosetta II (DE3) pLysS
Description: as §1, §2

[3] = molecular target: T3, SETd1B core complex (Homo sapiens, UniProt P61964); experiment: as above; assay type: biochemical; details: for IC50: Win6mer up to 50 μM, read-out: Inhibition Efficiency, IC50
T3 construct: Full-length WRAD constructs in pHis parallel expression vectors; His; made in house; host or cells: Escherichia coli Rosetta II (DE3) pLysS
Description: as §1, §2

[4] = molecular target: T4, MLL1 core complex (Homo sapiens, UniProt P61964); experiment: as above; assay type: biochemical
T4 construct: Full-length WRAD constructs in pHis parallel expression vectors; His; made in house; host or cells: Escherichia coli Rosetta II (DE3) pLysS
Description: as §1, §2

[5] = molecular target: T5, MLL2 core complex (Homo sapiens, UniProt P61964); experiment: as above; assay type: biochemical; details: H3K4me0 substrate
T5 construct: Full-length WRAD constructs in pHis parallel expression vectors; His; made in house; host or cells: Escherichia coli Rosetta II (DE3) pLysS
Description: as §1, §2

[6] = molecular target: T6, SET1 family core complex assembly (WDR5, RbBP5, ASH2L) (Homo sapiens, UniProt P61964); experiment: GST pull-down of endogenous WRAD components from MCF-7 cell extracts with or without Win6mer; assay type: binding; details: 10 μM Win6mer
T6 construct: host or cells: MCF-7 cell extract
Description: For pull-down assays using cell extracts, a 3 μM concentration of each GST-tagged SET domain was incubated with 100 μg of MCF-7 cell extract for 16 hours at 4° C. Following the initial incubation, 20 μL of a 50:50 slurry of glutathione agarose beads was added to each sample and incubated for an additional 2 hours at 4° C. Samples were washed 3× in radioimmunoprecipitation (RIPA) buffer. Samples were eluted from beads by boiling the samples at 95° C. in SDS-loading buffer for 10 minutes. Samples of the supernatant were separated on a 4-12% Bis-Tris gel and transferred to a PVDF membrane at 30V for 1 hour. PVDF membranes were blocked for 1 hour with a 5% non-fat milk solution then incubated with primary antibody (1:2,000) for 1 hour at room temperature. Blots were washed 4 times then incubated with an HRP-conjugated anti-rabbit secondary antibody (1:5,000) for 1 hour at room temperature. Blots were washed an additional 4 times, then visualized by chemiluminesence (Clarity Western, BioRad) on a BioRad ChemiDoc MP Imager using the chemiluminesence setting.

[7] = molecular target: T7, WDR5 (Homo sapiens, UniProt P61964); experiment: Isothermal titration calorimetry (ITC) binding to WDR5
T7 construct: the experimental cell containing full-length WDR5 (20 μM); His; made in house; host or cells: Escherichia coli Rosetta II (DE3) pLysS
Description: Isothermal titration calorimetry (ITC). Purified full-length WDR5 and Win6mer peptide were extensively dialyzed in separate Micro Float-A-Lyzer® Dialysis Devices, MWCO 500-1000 Da (Spectrum Labs) against sample buffer consisting of 20 mM Tris pH 7.5, 300 mM NaCl, 1 mM TCEP, 1 μM ZnCl2 buffer. ITC experiments were carried out at 20° C. using a VP-ITC micro-calorimeter (MicroCal). After an initial delay of 120 sec, Win6mer (200 μM) was titrated into the experimental cell containing full-length WDR5 (20 μM) over the course of 45 injections, 5 μL each. Reference power was set to 10 μCal/sec and stirring speed was set to 295 rpm. Data were integrated using NITPIC. SEDPHAT was used to fit the integrated data to a single-site heterogeneous association model, using simulated annealing and Maxquardt-Levenberg algorithms. Automatic confidence interval search with projection method was applied to estimate the error of the determined thermodynamic parameters. Confidence interval was set to 2σ (95%). ITC figure was generated using GUSSI.

[8] = test system: isolated SET1 family SET domains; experiment: Isolated SET domain methyltransferase activity with Win6mer (radiometric, fluorography/LSC); assay type: biochemical, human; details: 100 μM Win6mer; isolated SET domains without WRAD
Description: Methyltransferase Assays. MLL core complex Win motif mutants. […] Reactions were quenched with SDS-loading buffer and separated by SDS-PAGE using a 4-12% Bis-Tris gel (Life Technologies) run at 200V for 30 minutes. The gels were enhanced at room temperature for 30 minutes (Enlightning, Perkin Elmer Inc.) then dried for 2.5 hours at 72° C. under constant vacuum. The dried gels were exposed to film (Kodak Biomax MS Film) at −80° C. for 4-24 hours prior to developing. Liquid scintillation counting (LSC) was performed by excising gel bands corresponding to histone H3 peptides, which were dissolved in 750 μL of Solvable (Perkin Elmer Inc.), incubated at room temperature for 30 minutes followed by incubation at 50° C. for 3 hours. The solubilized volume of each sample was transferred to liquid scintillation vials containing 10 mL of Ultima Gold XL liquid scintillation cocktail (Perkin Elmer Inc.). Samples were dark adapted for 1 hour then counted for 5 minutes each with a two-sigma error cut-off using an all-purpose scintillation counter (Beckman Coulter).
MLL SET domains treated with Win6mer. Isolated SET1 family SET domains (5 μM) were incubated with 1 μCi of ^3H-AdoMet (Perkin Elmer Inc.) and 100 μM of H3K4me0, H3K4me1, or H3K4me2 peptides, with and without 100 μM Win6mer, in Assay Buffer at 15° C. for 8 hours. Reactions were quenched with SDS-loading buffer. […]

[9] = molecular target: T7, WDR5; details: ITC; reported values of other inhibitors; read-out: Dissociation Constant Kd towards WDR5; cited from earlier work

CC(=O)N[C@@H](C)C(=O)N[C@@H](CCCNC(=N)N)C(=O)N[C@H](C(=O)N[C@@H](CCC(=O)O)C(=O)N[C@H](C(=O)N[C@@H](Cc1ccc(O)cc1)C(N)=O)C(C)C)[C@@H](C)O [Win6mer, Ac-ARTEVY-NH2]
methyltransferase activity of core complex on treatment [1]: uninhibited | IC50 ([1]; 2 μM core complex, Win6mer up to 50 μM, read-out: Inhibition Efficiency, IC50): > 50 µM | methyltransferase activity of core complex on treatment ([2]; H3K4me0 substrate): uninhibited | IC50 ([2]; H3K4me0 substrate): > 50 µM | IC50 ([2]; H3K4me1 substrate): > 50 µM | methyltransferase activity of core complex on treatment ([3]; H3K4me0 substrate): uninhibited | IC50 ([3]; H3K4me0 substrate, 1 μM core complex): > 50 µM | IC50 ([3]; H3K4me1 substrate, 2 μM core complex): > 50 µM | IC50 ([3]; H3K4me2 substrate, 2 μM core complex): > 50 µM | IC50 ([4]; 1.8 μM of enzyme complex assayed, read-out: IC50): 2.2 µM | IC50 ([4]; 2 μM of enzyme complex assayed, read-out: average IC50): 2.2 µM | IC50 ([4]; H3K4me1 substrate, 2 μM core complex, read-out: Inhibition Efficiency, IC50 [95% confidence interval]): 2.2 µM | methyltransferase activity of core complex on treatment [5]: uninhibited | IC50 ([5]; 1 μM core complex, Win6mer up to 50 μM, read-out: Inhibition Efficiency, IC50): > 50 µM | RbBP5/ASH2L binding of MLL2, MLL3, MLL4 and SETd1B [6]: only a modest reduction | RbBP5/ASH2L interaction with MLL1 and SETd1A complexes [6]: near total loss | ability of all six SET1 family members to interact with endogenous WDR5 [6]: greatly reduced | increase in binding affinity over the best naturally occurring Win motif sequence [7]: ~18 fold | Kd ([7]; read-out: Dissociation Constant Kd towards WDR5): ~0.003 µM and 0.0029 µM | effect on intrinsic monomethyltransferase activity of SET1 family members [8]: did not affect

COC(=O)c1ccc(N2CCN(C)CC2)c(NC(=O)c2cccc(OC)c2)c1 [WDR5-0103]
Kd [9]: 0.45 µM
